# Measured values as given in US12065671B2, “Method for reproducible differentiation of clinical-grade retinal pigment epithelium cells” (The United States of America, as represented by the …, priority 2015, dated 2024).
# “Also recorded” adds a separate entry of the source.
# Assays:
# Type in all cases: cell-based, human
# iPSC-RPE cells [1] = assay: Immunostaining of iPSC-RPE monolayer (beta catenin, pERM, ZO1, RPE65, p27); conditions: for p27 staining: nucleus, higher expression suggests cell cycle exit; for Beta catenin staining: treated vs untreated iPSC-RPE cells (untreated: cytoplasm); for RPE65 staining: treated vs untreated iPSC-RPE cells (untreated: low); for RPE maturation: treatment of RPE cells in RPE-MM
# Method: (§1) For analysis of the mature RPE cells produced from treatment with PGE2, immunostaining of the RPE monolayer was performed to confirm the hexagonal architecture (FIGS. 4A-4C) of tight junctions by ZO1 staining as well as transmission electron microscopy of the iPSC-RPE cells (FIG. 4D). […] In addition, treatment with IWP2+endo-IWR1 or IWP2 results also results in decreased beta catenin (FIG. 5A) and increased RPE65 (FIG. 5C).
# RPE population = assay: Inclusion of MEK inhibitor in RDM and RPE-MM during RPE differentiation; conditions: 1 μM in RDM and in RPE-MM (approximately Days 42 through 50)
# Method: With regard to the methods described in Examples 2 and 3, the inclusion of PD0325901 at a concentration of 1 μM in media for certain windows of time beginning on Day 2 post iPSC plating through the end of the differentiation process, including post-MACS culture, may improve both purity of the RPE population (meaning a decrease in contaminating cells) as well as maturity of the resulting RPE population.
# iPSC-derived RPE cells [2] = assay: Barrier function: transepithelial electrical potential (TEP) and resistance (TER) of RPE monolayer
# Method: To measure the barrier function of the RPE cells generated by the present methods, transepithelial electrical potential (TEP) was measured the ion gradient across the monolayer generated by energy-driven ion pumps that regulate passage across the cells, and transepithelial electrical resistance (TER) measures resistance of substances through the paracellular space mainly through the fine structure of the tight junction structure (FIG. 7A).
# Functionality of the mature RPE cells treated with IWP2 or endo-IWR1 was also characterized. […] To determine the maturity and functionality of the 50 μM versus 100 μM PGE2 treated cultures, the barrier function in terms of transepithelial electrical resistance (TER) was measured (FIG. 7F) to compare the resistance of substances through the paracellular space as explained in Example 9. To determine the percentage of pure RPE cells obtained after treatment of the iPSC-derived RPE cultures with 50 μM or 100 μM in the RPE-MM+PGE2 medium, flow cytometry purity assay was performed for RPE-specific markers (FIG. 7G) as described in Example 6.
# iPSC-RPE cells [3] = assay: Transmission electron microscopy of iPSC-RPE cells; conditions: treated vs untreated iPSC-RPE cells
# Method: as §1
# iPSC-derived RPE cells [4] = assay: Flow cytometry purity assay for RPE-specific markers
# Method: The flow cytometry purity assay was performed to determine the percentage of RPE cells obtained by a sorting method of the present disclosure. An aliquot of the cell suspension collected from the MACS assay (2×10^6 cells in a 5 mL FACS tube per sample) was centrifuged at 400×g for 3 min. The cell pellet was resuspended in 1 mL of a stain (e.g., Live-Dead Red stain) and incubated in the dark at room temperature for 15 min. After incubation, 2 mL of wash buffer was added and the cells were centrifuged at 400×g for 3 min to remove any unbound stain. The cell pellet was resuspended in fixation buffer and incubated in the dark at room temperature for 15 min. After incubation, 2 mL of wash buffer were added and the cells were centrifuged at 400×g for 3 min and the supernatant was decanted. The cell pellet was resuspended in 2 mL of wash buffer to make a 1×10^6 cells/mL suspension and 200 μL of the cell suspension was transferred to a FACS tube. To each tube, 2 mL of perm buffer was added and cells were centrifuged at 400×g for 3 min. Primary antibodies for the RPE-specific markers were diluted in perm buffer and 100 μL diluted antibody solution was added to each tube. After incubation overnight at 4° C. in the dark, the cells were washed in 2 mL Perm Buffer two times. Secondary antibody solution was added to each of the tubes and cells were incubated at room temperature in the dark for 1-2 hours. After incubation, the cells were washed twice with Perm Buffer, centrifuged (400×g for 3 min) and resuspended in 100 μL wash buffer for flow cytometry analysis. […]
# Functionality of the mature RPE cells treated with IWP2 or endo-IWR1 was also characterized. […] To determine the maturity and functionality of the 50 μM versus 100 μM PGE2 treated cultures, the barrier function in terms of transepithelial electrical resistance (TER) was measured (FIG. 7F) to compare the resistance of substances through the paracellular space as explained in Example 9. […]
# [5] = day 75, 100 μM vs 50 μM PGE2, day 54 to day 75
SMILES,p27 staining (iPSC-RPE cells [1]),Beta catenin staining (iPSC-RPE cells [1]),RPE65 staining (iPSC-RPE cells [1]),RPE maturation (iPSC-RPE cells [1]),Purity and maturity of the RPE population (RPE population),"Functional response (TER) (iPSC-derived RPE cells [2]; 100 μM vs 50 μM PGE2 in RPE-MM+PGE2 medium, Day 54 to Day 75)",TEP and TER measurements (functionality) (iPSC-derived RPE cells [2]; treated vs untreated RPE cells),Apical processes in transmission electron micrographs (iPSC-RPE cells [3]),Expression of Best 1 marker (late maturity RPE marker) (iPSC-derived RPE cells [4]; [5]),"Expression of Pmel17, Tryp1 and Cralbp (RPE-specific markers) (iPSC-derived RPE cells [4]; [5])","Purity and maturity of the RPE population (iPSC-derived RPE cells [4]; higher concentration (100 μM vs 50 μM) in RPE-MM+PGE2 medium, TER and flow cytometry)",ZO1 staining (iPSC-RPE cells [1]; both untreated and treated cells),pERM (Ezrin) staining (iPSC-RPE cells [1]; treated vs untreated iPSC-RPE cells (untreated: low in cytoplasm))
"Cc1ccc2nc(NC(=O)CSc3nc4c(c(=O)n3-c3ccccc3)SCC4)sc2c1 [IWP2, N-(6-Methyl-2-benzothiazolyl)-2-[(3,4,6,7-tetrahydro-4-oxo-3-phenylthieno[3,2-d]pyrimidin-2-yl)thio]-acetamide]",higher p27 expression in the nucleus,decreased; also recorded: on cell membrane,increased; also recorded: high in the cytoplasm,produces mature RPE cells,,,,,,,,,
[Cl-].[Li+] [LiCl],weak p27 expression in the nucleus,in the nucleus,no staining,,,,,,,,,,
"O=C(NOC[C@H](O)CO)c1ccc(F)c(F)c1Nc1ccc(I)cc1F [PD 0325901, N-[(2R)-2,3-Dihydroxypropoxy]-3,4-difluoro-2-[(2-fluoro-4-iodophenyl)amino]-benzamide]",,,,,improve both purity and maturity,,,,,,,,
"CCCCC[C@H](O)/C=C/[C@H]1[C@H](O)CC(=O)[C@@H]1C/C=C\CCCC(=O)O [PGE2, prostaglandin E2]",,decreased; also recorded: at the membrane,increased; also recorded: high in the cytoplasm,produces mature RPE cells,,progressive increase,increased functionality,more extensive apical processes,much higher,comparable expression,promotes both the purity and maturity,at the tight junctions in the plasma membrane,high in the cytoplasm
